≈ marks a conversion by molar mass, not a printed value.
What was measured:
Assay in all cases: ≥ marks a high value that may be exact or a test limit, other limits are often not marked, values filed in µg/mL are converted to µM
Escherichia coli HB101 = test system: Escherichia coli HB101
[1] = test system: Leishmania major MHOM/IL/67/JERICHO-II
[2] = test system: Staphylococcus aureus Cowan 1
[3] = test system: Acinetobacter baumannii ATCC 19606
Bacillus megaterium = test system: Bacillus megaterium
[4] = test system: Candida albicans ATCC 90028
[5] = test system: Candida parapsilosis ATCC 22019
[6] = test system: Enterococcus faecalis ATCC 29212
[7] = test system: Escherichia coli ATCC 25922
[8] = test system: Escherichia coli ATCC 35218
Escherichia coli ML-35p = test system: Escherichia coli ML-35p
[9] = test system: Klebsiella pneumoniae ATCC 13883
[10] = test system: Pseudomonas aeruginosa ATCC 27853
Saccharomyces cerevisiae = test system: Saccharomyces cerevisiae
[11] = test system: Salmonella enterica subsp. enterica serovar Enteritidis
[12] = test system: Staphylococcus aureus ATCC 25923
[13] = test system: Staphylococcus aureus ATCC 43300
[14] = test system: Staphylococcus aureus ATCC BAA-44
[15] = test system: Staphylococcus aureus ST1065
[16] = test system: Bacillus subtilis ATCC 6633
[17] = test system: Candida albicans ATCC 10231
[18] = test system: Candida tropicalis PCM 2681
[19] = test system: Klebsiella pneumoniae ATCC 200603
[20] = test system: Pseudomonas aeruginosa ATCC 9027
[21] = test system: Staphylococcus epidermidis ATCC 14490
[22] = test system: Mycobacterium tuberculosis 173
[23] = test system: Mycobacterium tuberculosis 212
[24] = test system: Mycobacterium tuberculosis 411
[25] = test system: Mycobacterium tuberculosis CSU87
[26] = test system: Mycobacterium tuberculosis H37Rv
[27] = test system: Escherichia coli ATCC 2592
[28] = test system: Micrococcus luteus ATCC 9341
[29] = test system: Staphylococcus aureus 1550
[30] = test system: Staphylococcus aureus ATCC 6538
[31] = test system: Alcaligenes faecalis ATCC 8750
[32] = test system: Enterobacter cloacae beta-12
Escherichia coli D31 = test system: Escherichia coli D31
Escherichia coli SBS 363 = test system: Escherichia coli SBS 363
[33] = test system: Salmonella enterica subsp. arizonae
Salmonella sp. = test system: Salmonella sp.
[34] = test system: Serratia marcescens ATCC 4112
[35] = test system: Streptococcus mutans UA159
[36] = test system: Streptococcus sanguinis ATCC 10556
[37] = test system: Streptococcus sobrinus ATCC 6715

CSCC[C@H](NC(=O)[C@@H](NC(=O)CNC(=O)[C@H](CC(C)C)NC(=O)[C@H](CCCCN)NC(=O)[C@H](CCCCN)NC(=O)[C@H](CC(C)C)NC(=O)[C@H](CCSC)NC(=O)[C@@H](NC(=O)[C@H](CCCCN)NC(=O)[C@H](Cc1c[nH]c2ccccc12)NC(=O)[C@H](CC(C)C)NC(=O)[C@H](C)N)[C@@H](C)O)[C@@H](C)O)C(N)=O [ALWKTMLKKLGTM] was tested, and the MIC (Escherichia coli HB101) was ≥ 50.6 µM, the MIC [1] was ≥ 50.6 µM and the MIC [2] was ≥ 50.6 µM.

In the case of CC[C@H](C)[C@H](NC(=O)CNC(=O)[C@H](C)NC(=O)[C@H](CC(C)C)NC(=O)[C@H](C)NC(=O)[C@H](C)NC(=O)[C@@H]1CCCN1C(=O)[C@H](CC(C)C)NC(=O)[C@@H](N)Cc1ccccc1)C(=O)NCC(=O)NCC(=O)N[C@H](C(=O)N[C@@H](CC(C)C)C(=O)NCC(=O)N[C@@H](CCCCN)C(=O)N[C@@H](CC(C)C)C(=O)N[C@@H](Cc1ccccc1)C(N)=O)[C@@H](C)CC [FLPAALAGIGGILGKLF], the MIC [3] is reported as 25 µM (≈ 41.4 µg/mL), the MIC (Bacillus megaterium) is reported as 1.56 µM (≈ 2.59 µg/mL) and the MIC [4] is reported as ≥ 100 µM. For the same compound, the MIC [5] was ≥ 200 µM, the MIC [6] was 25 µM (≈ 41.4 µg/mL) and the MIC [7] was 5 µM (≈ 8.29 µg/mL). The MIC [8] was ≥ 50 µM, the MIC (Escherichia coli ML-35p) was 25 µM (≈ 41.4 µg/mL) and the MIC [9] was ≥ 100 µM. The MIC [10] was > 200 µM, the MIC (Saccharomyces cerevisiae) was 25 µM (≈ 41.4 µg/mL) and the MIC [11] was ≥ 200 µM. For the same compound, the MIC [12] was 6.25 µM (≈ 10.4 µg/mL), the MIC [13] was 6.25 µM (≈ 10.4 µg/mL) and the MIC [14] was 6.25 µM (≈ 10.4 µg/mL). It also gave an MIC [15] of 6.25 µM (≈ 10.4 µg/mL).

CC[C@H](C)[C@H](N)C(=O)N[C@H]1CSSC[C@@H](C(=O)N[C@H](C(=O)O)[C@@H](C)CC)NC(=O)[C@H](Cc2cnc[nH]2)NC(=O)[C@H](Cc2cnc[nH]2)NC1=O [ICHHCI] was tested, and the MIC [16] was ≥ 706 µM, the MIC [17] was > 706 µM and the MIC [18] was ≥ 706 µM. For the same compound, the MIC [7] was > 706 µM, the MIC [19] was ≥ 706 µM and the MIC [20] was > 706 µM. The MIC [12] was > 706 µM and the MIC [21] was ≥ 706 µM.

In the case of CC[C@H](C)[C@H](N)C(=O)N[C@@H](CC(C)C)C(=O)N[C@@H](CC(C)C)C(=O)N[C@@H](CCCCN)C(=O)N[C@@H](CCCCN)C(=O)N[C@@H](CC(C)C)C(=O)N[C@@H](CC(C)C)C(=O)N[C@@H](CCCCN)C(=O)N[C@@H](CCCCN)C(=O)N[C@H](C(N)=O)[C@@H](C)CC [ILLKKLLKKI], the MIC [22] is reported as ≥ 413 µM, the MIC [23] is reported as ≥ 413 µM and the MIC [24] is reported as ≥ 207 µM. For the same compound, the MIC [25] was ≥ 207 µM and the MIC [26] was ≥ 413 µM.

CC(C)[C@H](NC(=O)[C@H](CCCCN)NC(=O)[C@H](Cc1ccccc1)NC(=O)[C@@H](NC(=O)[C@@H](NC(=O)[C@H](CCCCN)NC(=O)[C@@H](N)CCCCN)C(C)C)C(C)C)C(=O)N[C@@H](CCCCN)C(=O)N[C@@H](Cc1ccccc1)C(=O)N[C@@H](Cc1cnc[nH]1)C(=O)O [KKVVFKVKFH] was tested, and the MIC [27] was 17.5 µM (≈ 22 µg/mL), the MIC [28] was 6.35 µM (≈ 8 µg/mL) and the MIC [20] was 7.94 µM (≈ 10 µg/mL). The MIC [29] was 19.8 µM (≈ 25 µg/mL) and the MIC [30] was 9.92 µM (≈ 12.5 µg/mL).

Work on CC(C)[C@H](NC(=O)[C@H](C)NC(=O)[C@@H]1CCCN1C(=O)[C@H](Cc1ccc(O)cc1)NC(=O)[C@@H](N)CCCN=C(N)N)C(=O)NCC(=O)N[C@@H](Cc1ccc(O)cc1)C(=O)N[C@H](C(=O)O)[C@@H](C)O [RYPAVGYT] yielded an MIC [31] of 6.26 µM (≈ 5.8 µg/mL), an MIC [32] of 3.13 µM (≈ 2.9 µg/mL) and an MIC (Escherichia coli D31) of 6.26 µM (≈ 5.8 µg/mL). It also gave an MIC (Escherichia coli SBS 363) of 6.26 µM (≈ 5.8 µg/mL), an MIC [10] of 6.26 µM (≈ 5.8 µg/mL) and an MIC [33] of 6.26 µM (≈ 5.8 µg/mL). It also gave an MIC (Salmonella sp.) of 6.26 µM (≈ 5.8 µg/mL) and an MIC [34] of 6.26 µM (≈ 5.8 µg/mL).

NCCCC[C@H](NC(=O)[C@H](Cc1c[nH]c2ccccc12)NC(=O)[C@H](CCCCN)NC(=O)[C@H](CCCCN)NC(=O)[C@H](Cc1ccccc1)NC(=O)[C@H](Cc1ccccc1)NC(=O)[C@H](CCCCN)NC(=O)[C@H](CCCCN)NC(=O)[C@H](Cc1ccccc1)NC(=O)[C@H](Cc1ccccc1)NC(=O)[C@H](CCCCN)NC(=O)[C@H](Cc1ccccc1)NC(=O)[C@@H](N)Cc1c[nH]c2ccccc12)C(=O)O [WFKFFKKFFKKWK] was tested, and the MIC [35] was 4.22 µM (≈ 8 µg/mL), the MIC [36] was 4.22 µM (≈ 8 µg/mL) and the MIC [37] was 4.22 µM (≈ 8 µg/mL).

Reference: DBAASP
